These results are taken from patent US11918577B2, “Dipeptidyl peptidase-4 inhibitors for topical eye treatment of retinal neurodegenerative diseases” (FUNDACIÓ HOSPITAL UNIVERSITARI VALL D'HEBRON - INSTITUT DE …, priority 2016, dated 2024).

SMILES strings stand for the structures.

Series [1] has as its system GLP-1 and its main downstream messenger cAMP. Briefly: Intraretinal content of GLP-1 and cAMP in db/db mice, eye drops (data not shown). In kind it is in vivo, mouse. An excerpt:
Without being bound to any theory, inventors consider that, in fact, the DPP-4 inhibitors themselves activate unrelated downstream GLP-1R pathways that might be involved in neuroprotection.

The test system of series [2] is db/db mouse. Briefly: Retinal glutamate quantification (UPLC) in db/db mice, eye drops. In kind it is in vivo. The conditions noted are these: p<0.05. An excerpt:
(§1) It has been reported that db/db mice reproduce the features of the neurodegenerative process that occurs in the human diabetic eye. Therefore, it is an appropriate model for testing neuroprotective drugs (according to Bogdanov et al., “The db/db mouse: a useful model for the study of diabetic retinal neurodegeneration”, PLoS One—2014, vol. no. 9(5):e97302). A total of 20 male db/db (BKS.Cg-+Lepr db/+Lepr db/OlaHsd) mice aged 10 weeks were purchased from Harlan Laboratories, Inc. In addition, 10 non-diabetic (db/+) mice matched by age were used as control group.
(§2) This study was approved by the Animal Care and Use Committee of VHIR (Vali d′Hebron Research Institute). All the experiments were performed in accordance with the tenets of the European Community (86/609/CEE) and ARVO (Association for Research in Vision and Ophthalmology).
Quantification of glutamate was performed by reverse phase ultra-performance liquid chromatography (UPLC) (Acquity-UPLC, Waters) as aminoquinoline derivatives (AccQ-Tag chemistry, MassTrak AAA method and instruments, Waters, Milford, MA).
(§3) The design and methodology were the same than used in Example 2.

The subject of series [3] is db/db mouse. Nature of the series: Glial activation (GFAP staining score) in retina of db/db mice, eye drops. The conditions noted are these: for GFAP score of the treated mice / reactive gliosis: eye drops for two weeks; for GFAP score of the treated mice: all cases, scale 1-5; for reactive gliosis: vs vehicle. In kind it is in vivo.
Excerpt: as §1, §2
Glial activation was evaluated by Laser Scanning Confocal microscopy using specific antibodies against GFAP (Glial fibrillar acidic protein). Sections were fixed in acid methanol (−20° C.) for 2 min, followed by three washes with PBS, 5 min each. Sections were permeabilized with TBS-Triton X-100 0.025% and were incubated in blocker (1% BSA, and 10% goat serum in PBS) for 2 hours at room temperature. Sections were then incubated with rabbit anti-GFAP (Abcam Ltd, Cambridge, U.K.) (1:500 dilution prepared in blocking solution) overnight at 4° C. in a humid atmosphere. After three washes in PBS, 5 min each, the sections were incubated with secondary antibody Alexa 488 goat-anti-rabbit (Invitrogen) (1:200 dilution prepared in blocking solution). The sections were washed three times in PBS, counterstained with Hoestch and mounted with Mounting Medium Fluorescence (Prolong, Invitrogen) and mounted with a coverslip. Comparative digital images from samples were recorded with a Fluoview FV 1000 Laser Scanning Confocal Microscope Olympus using identical brightness and contrast settings.
To evaluate the degree of glial activation it was used a scoring system based on the extent of GFAP staining previously described (Anderson et al., “Glial and endothelial blood-retinal barrier responses to amyloid-beta in the neural retina of the rat”, Clin Ophthalmol—2008, vol. no. 2, pp.:801-816). This scoring system was as follows: Müller cell endfeet region/GCL only (score 1); Müller cell endfeet region/GCL plus a few proximal processes (score 2); Müller cell endfeet plus many processes, but not extending to ONL (score 3); Müller cell endfeet plus processes throughout with some in the ONL (score 4); Müller cell endfeet plus lots of dark processes from GCL to outer margin of ONL (score 5).
The scoring system was as follows: Müller cell endfeet region/GCL only (score 1); Müller cell endfeet region/GCL plus a few proximal processes (score 2); Müller cell endfeet plus many processes, but not extending to ONL (score 3); Müller cell endfeet plus processes throughout with some in the ONL (score 4); Müller cell endfeet plus lots of dark processes from GCL to outer margin of ONL (score 5). n=10 mice per group (5 retinal sections per mice).
as §3

Series [4] concerns db/db mouse. Briefly: Retinal apoptosis (TUNEL) in db/db mice, eye drops. The conditions noted are these: eye drops for two weeks, ONL, INL, GCL, vs vehicle. In kind it is in vivo.
Excerpt: as §1, §2
The TUNEL (Terminal Transferase dUTP Nick-End Labeling) staining was carried out using the DeadEnd Fluorometric TUNEL System kit (PROMEGA, Madison, WI, USA). Cryosections of retina were permeabilised by incubation for 2 min on ice with 0.1% Triton X-100 in 0.1% sodium citrate, freshly prepared. The secondary antibody was Alexa 488 goat-anti-rabbit (Invitrogen, San Diego CA, USA). For evaluation by Laser Scanning Confocal microscopy the excitation wavelength was 488 nm and detection in the range of 515-565 nm (green) was used. […]

Series [5] deals with GLAST (glutamate-aspartate transporter). Briefly: GLAST immunofluorescence in retina of db/db mice, eye drops. In kind it is in vivo, mouse.
Excerpt: as §1, §2
GLAST (glutamate-aspartate transporter), the main glutamate transporter, was evaluated by fluorescence microscopy using specific antibodies. GLAST was evaluated by fluorescence microscopy using specific antibodies [rabbit anti-GLAST (EAAT1) (1:100, Abcam ab416, Cambridge, UK).
as §3

The subject of series [6] is db/db mouse. Briefly: Blood-retinal barrier: albumin leakage (Evans blue, albumin immunofluorescence) in db/db mice, eye drops. The series is classed as in vivo. The conditions noted are these: for albumin leakage (extravasation of albumin): vs vehicle.
Excerpt: as §1, §2
In the lower panel FIG. 6(B) the quantification of albumin immunofluorescence of digital images with Fluoview FV 1000 Laser Scanning Microscope is shown. Immunohistochemistry images of Fluoview FV 1000 Laser Scanning Microscope from which quantification of albumina (in red) was done are not shown. The three type of samples tested were: D-Sham, D-SAXAGLIPTIN and C (db/+). Results are the mean±SD. *p <0.05 between db/db treated with vehicle (D-Sham) and the other groups.
as §3
In the lower panel FIG. 9(B) the quantification of albumin immunofluorescence of digital images with Fluoview FV 1000 Laser Scanning Microscope is shown. Immunohistochemistry images of Fluoview FV 1000 Laser Scanning Microscope from which quantification of albumina (in red) was done are not shown. The three type of samples tested were: D-Sham, D-Sitagliptin and C (db/+). Results are the mean±SD. *p<0.05 between db/db treated with vehicle (D-Sham) and the other groups.

The test system of series [7] is db/db mouse. Nature of the series: Full field electroretinography (ERG) in db/db mice, eye drops. The series is classed as in vivo.
Protocol: Full field electroretinography (ERG) recordings were measured using the Ganzfeld ERG platform (Phoenix Research Laboratories, Pleasanton, CA) following ISCEV (International Society for Clinical Electrophysiology of Vision) recommendations (according to Marmor et al., “Standard for clinical electroretinography.”, International Society for Clinical Electrophysiology of Vision (2004), Doc Ophthalmol—2004; vol. 108, pp.:107-114).
The conditions of series [8]: administered in the form of eye drops; cited from earlier work.
The next series concerns db/db mice. The conditions noted are these: orally administered, diabetic mice (db/db); cited from earlier work.
Another series concerns C. Elegans. The conditions noted are these: high glucose levels, no GLP-1R expression; cited from earlier work.

Take `N#C[C@@H]1C[C@@H]2C[C@@H]2N1C(=O)[C@@H](N)C12CC3CC(CC(O)(C3)C1)C2` [Saxagliptin, (1S,3S,5S)-2-[(2S)-2-amino-2-(3-hydroxy-1-adamantyl)acetyl]-2-azabicyclo[3.1.0]hexane-3-carbonitrile]: in series [1], the “intraretinal content of GLP-1” value is “significant increase” and the “intraretinal content of cAMP” value is “significant increase”. Also, the “retinal glutamate concentration vs diabetic mice treated with vehicle” value with db/db mouse [2] was “significantly lower”. In the series on db/db mouse [3], the “GFAP score of the treated mice” value is below 3 and the reactive gliosis result is on record as “significant decrease”. Moreover, the “% positive GFAP labeling, score 1” value in the series with db/db mouse [3] (eye drops twice daily for 14 days, score 1: Müller cell endfeet region/GCL only) was 95.00%. Besides, in the series on db/db mouse [3] (eye drops twice daily for 14 days, score 2: endfeet region/GCL plus a few proximal processes), the “% positive GFAP labeling, score 2” value is recorded as 5.00%. Further, the “% positive GFAP labeling, score 3” value in the series on db/db mouse [3] (eye drops twice daily for 14 days, score 3: endfeet plus many processes, not extending to ONL) is 0.00%. Besides, in the series with db/db mouse [3] (eye drops twice daily for 14 days, score 4: endfeet plus processes throughout with some in the ONL), the “% positive GFAP labeling, score 4” value amounted to 0.00%. In the series on db/db mouse [3] (eye drops twice daily for 14 days, score 5: lots of dark processes from GCL to outer margin of ONL), the “% positive GFAP labeling, score 5” value is given as 0.00%. Besides, in the series with db/db mouse [4], the “apoptosis (TUNEL positive cells) in retinal layers” value was “significant prevention of apoptosis in all retinal layers”. Also, the “downregulation of GLAST induced by diabetes” value in series [5] was “prevented”. The “albumin leakage (extravasation of albumin)” value with db/db mouse [6] is recorded as “prevented albumin leakage”.
Regarding `N[C@@H](CC(=O)N1CCn2c(nnc2C(F)(F)F)C1)Cc1cc(F)c(F)cc1F` [Sitagliptin, (R)-4-oxo-4-[3-(trifluoromethyl)-5,6-dihydro[1,2,4]triazolo[4,3-a]pyrazin-7(8H)-yl]-1-(2,4,5-trifluorophenyl)butan-2-amine], in series [1], the “intraretinal content of GLP-1” value was “significant increase” and the “intraretinal content of cAMP” value is “significant increase”. For the same compound, the “retinal glutamate concentration vs diabetic mice treated with vehicle” value with db/db mouse [2] is “prevented glutamate accumulation”. Also, in the series with db/db mouse [3], the “GFAP score of the treated mice” value was at most 3 and the reactive gliosis entry is “significant decrease”. Moreover, the “GFAP score distribution (Table 2), score 1” value with db/db mouse [3] (sitagliptin eye drops for two weeks, score 1) was 85.00. Also, the “GFAP score distribution (Table 2), score 2” value in the series on db/db mouse [3] (sitagliptin eye drops for two weeks, score 2) was determined as 10.00. In the series with db/db mouse [3] (sitagliptin eye drops for two weeks, score 3), the “GFAP score distribution (Table 2), score 3” value turned out to be 5.00. Besides, the “GFAP score distribution (Table 2), score 4” value with db/db mouse [3] (sitagliptin eye drops for two weeks, score 4) was determined as 0.00. In the series with db/db mouse [3] (sitagliptin eye drops for two weeks, score 5), the “GFAP score distribution (Table 2), score 5” value came out at 0.00. The “functional abnormalities measured by ERG” value with db/db mouse [7] was “prevented functional abnormalities”. Besides, in the series with db/db mouse [4], the “apoptosis (TUNEL positive cells) in retinal layers” value is given as “significant prevention of apoptosis in all retinal layers”. For the same compound, in series [5], the “downregulation of GLAST induced by diabetes” value was “abrogating the downregulation of GLAST”. Moreover, in the series with db/db mouse [6], the “sealing function of the BRB” value is reported as “preserved the sealing function of the BRB” and the “albumin leakage (extravasation of albumin)” value is on record as “prevented albumin leakage”.
For the compound `Cc1cc(-c2cc(O)ccc2Cl)cc2nnc(Nc3ccc(OCCN4CCCC4)cc3)nc12` [TG100572, 4-chloro-3-(5-methyl-3-{[4-(2-pyrrolidin-1-ylethoxy)phenyl]amino}-1,2,4-benzotriazin-7-yl)phenol], the “reaching the target in the retina” value in [8] is on record as “able to reach the target in the retina”.
Regarding `N[C@@H](CC(=O)N1CCc2c(nc(C(F)(F)F)nc2C(F)(F)F)C1)CN1CC(F)(F)CCC1=O` [Gemigliptin, (3S)-3-amino-4-(5,5-difluoro-2-oxopiperidino)-1-[2,4-di(trifluoromethyl)-5,6,7,8-tetrahydropyrido[3,4-d]pyrimidin-7-yl]butan-1-one], in the series with db/db mice, the retinal pericyte apoptosis entry is recorded as “ameliorate” and the vascular leakage entry is reported as “ameliorate”.
Consider `CC#CCn1c(N2CCC[C@@H](N)C2)nc2c1c(=O)n(Cc1nc(C)c3ccccc3n1)c(=O)n2C` [Linagliptin, 8-[(3R)-3-aminopiperidin-1-yl]-7-(but-2-yn-1-yl)-3-methyl-1-[(4-methylquinazolin-2-yl)methyl]-3,7-dihydro-1H-purine-2,6-dione], for which the neuroprotective effect result in the series with C. Elegans was “neuroprotective effect”.
